Experimental data from PubChem BioAssay AID602167 (The Scripps Research Institute Molecular Screening Center, 2012).
The source made the active and inactive calls. How the calls were made is not given here.

Biological target: transactivating tegument protein VP16 (Human herpesvirus 1), as a GAL4-VP16 activation-domain luciferase reporter
Experiment: VP16 transactivation inhibitor potency, dose response, counter-screen for SRC3 inhibitor project, cell-based, luminescence, high throughput, SRC3 series (AID 602167)
Settings: VP16 transactivation luciferase reporter cells

| Compound | IC50 |
| --- | --- |
| C=C1C(=O)[C@]23C[C@H]1CCC2[C@@]1(C)C(C[C@@H]3O)[C@](C)(C(=O)OC)CC[C@@H]1O (stereo partly drawn) | 5.21 µM |
| CC(C)(C)c1ccc(Oc2ccc(N)cn2)cc1 | inactive |
| C=CS(=O)(=O)N(Cc1ccc(Cl)c(Cl)c1)C[C@@H](O)CO | inactive |
| O=C(CCl)N1N=C(c2ccco2)CC1c1ccco1 (stereo not drawn) | > 12 µM (inactive) |
| c1cc2[nH]snc2c2nc(C3CC3)nc12 | 4.83 µM |
| C#CC(=O)N(c1cc(OC)ccc1OC)C(C(=O)NC1CCCC1)c1cccs1 (stereo not drawn) | > 35.9 µM (inactive) |
| CCc1nc(N)nc(N)c1-c1ccc(Cl)c([N+](=O)[O-])c1 | > 35.8 µM (inactive) |
| COc1ccc(/C=C2\CC/C(=C\c3ccc(OC)c(OC)c3)C2=O)cc1OC | inactive |
| Cc1ccc(N(CCC#N)C(=O)CCl)cc1C | > 12 µM (inactive) |
| CCOc1cc(/C=C2\CCC/C(=C\c3cc(Cl)c(O)c(OCC)c3)C2=O)cc(Cl)c1O | 4.82 µM |
| O=C(CCl)N(c1ccccc1)C1CCCCC1 | inactive |
| S=C(Nc1ccccc1)Nc1ccc(OCc2ccc(Cl)cc2Cl)cc1 | 7.96 µM |
| CN(C)c1ccc(C(=S)Nc2ccccc2)cc1 | > 35.9 µM (inactive) |
| Cc1nnc(SC(=O)N2c3ccccc3Sc3ccccc32)s1 | 7.54 µM |
| NC(=O)c1cc(Sc2ccccc2)nc2ccccc12 | inactive |
| O=C(CC1CS(=O)(=O)CC1CC(=O)Nc1ccc2c(c1)OCCO2)Nc1ccc2c(c1)OCCO2 (stereo not drawn) | inactive |
| Cc1cccc(C)c1NS(=O)(=O)c1ccc(-c2cnc(C3CC3)o2)cc1 | > 12 µM (inactive) |
| CCOc1ccc(CC(=O)Nc2ccc(NC(=O)c3ccco3)cc2)cc1OCC | 7.73 µM |
| CCOc1ccccc1-n1c(SCC(=O)Nc2ccccc2C(=O)O)nc2ccccc2c1=O | inactive |
| CN(Cc1cnc2nc(N)nc(N)c2n1)c1ccc(C(=O)NC(CCC(=O)O)C(=O)O)cc1 (stereo not drawn) | > 35.9 µM (inactive) |
| NS(=O)(=O)c1ccc(Sc2nc3ccccc3s2)c([N+](=O)[O-])c1 | 7.26 µM |
| O=c1[nH]c2ccccc2n1C1CCN(C(c2cccc3ccccc23)c2nnnn2-c2ccc3c(c2)OCCO3)CC1 (stereo not drawn) | 7.28 µM |
| O=C(COc1ccc(Cl)cc1)Nc1ccc(C(=O)NCc2cccnc2)cc1 | inactive |
| O=C(OCc1ccccc1)c1ccc(NCc2cc(O)ccc2O)cc1 | 5.95 µM |
| CC(C)(C)c1cc(C(=O)N/N=C/c2ccc(O)cc2)n(-c2ccccc2)n1 | inactive |
| COc1cc(/C=C(/C(=O)c2cccs2)c2nc3ccccc3[nH]2)cc(OC)c1O | 8.01 µM |
| CCN(C(C)=O)c1cnc(C=NNC(N)=S)c2ccccc12 | 4.4 µM |

| Compound | IC50 |
| --- | --- |
| CC(C)(C)c1ccc(-c2noc(CCC(=O)Nc3cccnc3)n2)cc1 | inactive |
| CC(=O)Nc1ccc(SCC(=O)c2cc(C)n(-c3ccccc3)c2C)cc1 | > 35.9 µM (inactive) |
| CNC(=O)c1cccn(Cc2ccc(C(F)(F)F)cc2)c1=O | > 35.8 µM (inactive) |
| CC(=O)Nc1ccc(SCC(=O)c2cc(C)n(-c3ccccc3F)c2C)cc1 | > 12 µM (inactive) |
| CCC(=O)N1CCN(c2ccnc3cc(Cl)ccc23)CC1 | inactive |
| Cc1cc2nccc(-c3ccncc3)n2n1 | inactive |
| COc1ccc(OC)c(N/C=C/C(=O)c2ccccc2)c1 | inactive |
| Nc1ncccc1C(=O)OCC(=O)N1CCN(S(=O)(=O)c2ccc(Cl)cc2)CC1 | 9.87 µM |
| Nc1ccc(-c2cc3ccccc3oc2=O)cc1 | > 35.9 µM (inactive) |
| COC(=O)c1cc(S(=O)(=O)NCCc2ccc(Cl)cc2)c[nH]1 | inactive |
| NNC(=O)c1cc2ccccc2cc1O | inactive |
| Cc1ccc(-n2c(C)cc(C(=O)COc3cccnc3[N+](=O)[O-])c2C)cc1 | inactive |
| CN(C)c1ccc(CNC(=O)CCNS(=O)(=O)c2cc(Br)cnc2N)cc1 | 8.6 µM |
| CCC(=O)c1ccc(O)c(CC=C(C)C)c1 | 9.84 µM |
| CC(=O)N1CCN(c2ncnc3ccccc23)CC1 | inactive |
| O=C(N/N=C/c1cc(Br)c(Br)s1)c1ccncc1 | inactive |
| Cc1cccc2sc(NNC(=O)c3ccc(S(=O)(=O)N4CC(C)CC(C)C4)cc3)nc12 (stereo not drawn) | 7.55 µM |
| O=c1[nH]c2ccccc2n1C1CCN(C(c2ccccc2)c2nnnn2-c2ccc3c(c2)OCCO3)CC1 (stereo not drawn) | inactive |
| C=CCOn1c(C)c(C(C)=O)c2c3nonc3ccc21 | 7.3 µM |
| CN(Cc1cnc2nc(N)nc(N)c2n1)c1ccc(C(=O)NC(CCC(=O)O)C(=O)O)c2ccccc12 (stereo not drawn) | > 35.9 µM (inactive) |
| Nc1nc(=S)c2ncn([C@@H]3O[C@H](CO)[C@@H](O)[C@H]3O)c2[nH]1 | 3.37 µM |
| C=CCn1c(O)c(C(C)=NCc2cc(OC)cc(OC)c2)c(=O)[nH]c1=O | inactive |
| O=C(Nc1ccccc1Oc1ccccc1)c1cc([N+](=O)[O-])ccc1Cl | inactive |
| CN(C)S(=O)(=O)c1ccc(N2CCN(S(=O)(=O)c3ccc(F)cc3)CC2)c(Cl)c1 | 9.39 µM |
| O=[N+]([O-])c1cccc2c1ccc1ncccc12 | inactive |
| Cc1ccc(C(=O)Nc2cnc3ccccc3c2)cc1 | 8.49 µM |
